US20040157280A1, “Antibody mediated ozone generation” (priority 2001, published 2004)
“Also recorded” adds a separate entry of the source.

Columns and labels:
E. coli = test: Bactericidal assay, E. coli (strain not singled out); type: cell-based; conditions: for bactericidal activity (in words): HPIX 40 μM, white light 1 h, 4° C.
Experimental: (§1) In a typical experiment, a culture of E. coli (in log phase growth, OD600=0.2-0.3) was repeatedly pelleted (3×3,500 rpm) and resuspended in PBS (pH 7.4). The PBS suspended cells were then added to glass vials and cooled to 4° C. Hematoporphyrin IX (40 μM) and antibody (20 μM) were added and the vials were either placed on a light box (visible light, 2.8 mW cm^−2) or in the dark at 4° C. and incubated for 1 h. Viability was determined by recovery of colony forming units (CFUs) on agar plates. Each experiment was performed at least in duplicate.
as §1, with “washed in PBS by pelleting” for “pelleted”, “rpm) the cells” for “rpm)”, “resuspending them” for “resuspended”

human neutrophils (PMNs) = test: Oxidation of indigo carmine 1 by activated human neutrophils; type: cell-based; conditions: indigo carmine 30 μM, PMNs 1.5×10^7 cell/mL, phorbol myristate 1 μg/mL, 37° C.
Experimental: FIG. 20A illustrates the time course of oxidation of indigo carmine 1 (30 μM) (Δ) and formation of 2 (▪) by human neutrophils (PMNs, 1.5×10^7 cell/mL) activated with phorbol myristate (1 μg/mL) in PBS (pH 7.4) at 37° C. No oxidation of indigo carmine 1 occurs with PMNs that are not activated (data not shown). Neutrophils were prepared as previously described. Hypochlorous acid (HOCl) is an oxidant known to be produced by neutrophils.
Human neutrophils were prepared as described by M. Markert, P. C. Andrews, and B. M. Babior Methods Enzymol. 105, 358 (1984). Following activation with phorbol myristate (1 μg/mL), the neutrophils (1.5×10^7 cells/mL) produced an oxidant species that oxidatively cleaves indigo carmine 1 to isatin sulfonic acid 2 (FIG. 19 and FIG. 20B). Hypochlorous acid (HOCI) is an oxidant that is known to be produced by neutrophils.

[1] = Long-term near-UV photo-production of H2O2 with catalase cycles; type: biochemical
Experimental: FIG. 8A illustrates the production of H2O2 by immunoglobulins and non-immunoglobulin proteins. Assays were performed by near-UV irradiation (312 nm, 800 μW cm^−2) of individual antibody/protein samples (100 μL, 6.7 μM) in phosphate-buffered saline (PBS) [10 mM sodium phosphate, 150 mM NaCl (pH 7.4)] in a sealed glass vial on a transilluminator (Fischer Biotech) under ambient aerobic conditions at 20EC. Aliquots (10 μL) were removed at timed intervals throughout the assay. H2O2 concentration was determined by the amplex red method. […]
FIG. 8B illustrates the long-term production of H2O2 by sheep poly-IgG (6.7 μM, 200 μL). […] H2O2 concentration was measured as described in FIG. 8A. […]
FIG. 8E illustrates the long-term inhibition of antibody photo-production of H2O2 by H2O2 and complete re-establishment of activity after removal of H2O2. […] H2O2 fo rmation throughout the assay was measured by the amplex red assay. […]
FIG. 11B provides the effect of chloride ion on antibody-mediated photo-production of H2O2. […] Aliquots (10 μL) were removed throughout the assay and the H2O2 concentration determined by the amplex red assay. […]

[2] = Hydrogen peroxide production by UV-irradiated antibody/protein (Amplex Red assay); type: biochemical; conditions: UV irradiation in PBS
Experimental: Antibody/Protein Irradiation. Unless otherwise stated, the assay solution (100 μl, 6.7 μM protein in PBS, pH 7.4) was added to a glass vial, sealed with a screw-cap, and irradiated with either UV (312 nm, […] Fischer-Biotech transilluminator) or visible light.
Quantitative Assay for Hydrogen Peroxide. An aliquot (20 μl) from the protein solution was removed and added into a well of a 96-well microtiter plate (Costar) containing reaction buffer (80 μl). Working solution (100 μl/400 μM Amplex Red reagent ½ units/ml horseradish peroxidase) was then added, and the plate was incubated in the dark for 30 min. The fluorescence of the well components was then measured using a CytoFluor Multiwell Plate Reader (Series 4000, PerSeptive Biosystems, Framingham, Mass.; Ex/Em: 530/580 nm). The hydrogen peroxide concentration was determined using a standard curve. All experiments were run in duplicate, and the rate is quoted as the mean of at least two measurements.
Denaturation. IgG 19G12 (100 μl, 6.7 μM) was heated to 100EC in an Eppendorf tube for 2 min. The resultant solution was transferred to a glass, screw-cap vial and irradiated with UV light for 30 min. The concentration of H2O2 was determined after 30 min.

In the case of `CC1=C(CCC(=O)O)c2cc3[nH]c(cc4nc(cc5[nH]c(cc1n2)c(C)c5C(C)O)C(C)=C4C(C)O)c(C)c3CCC(=O)O` (stereo not drawn) [hematoporphyrin IX], the “bactericidal activity (in words)” value (E. coli) is reported as “negligible bactericidal activity”.

For `O=C1/C(=C2\Nc3ccc(S(=O)(=O)O)cc3C2=O)Nc2ccc(S(=O)(=O)O)cc21` [indigo carmine 1, indigo carmine], the “isatin sulfonic acid 2 formed” value (human neutrophils (PMNs)) was 25.1 ± 0.3 µM.

In the case of `N[C@@H](Cc1c[nH]c2ccccc12)C(=O)O` [tryptophan], the “production of H2O2 during near-UV irradiation” value ([1]; tryptophan 20 μM) is reported as “ca. 0.5 mole equivalents”.

With “bovine serum albumin: bovine serum albumin” the “bactericidal activity (in words)” value (E. coli) was “no bacterial killing”.

For catalase, the “protection against the bactericidal activity of non-specific antibodies” value (E. coli; catalase 13 mU/mL) was “complete protection; also recorded: completely attenuated the bactericidal activity”.

For “chick ovalbumin: chick-egg ovalbumin from Sigma”, the “ability to reduce ^1O2 / generate H2O2 (in words)” value [2] was “one of the most efficient proteins at reducing ^1O2”.

In the case of “superoxide dismutase: enzyme obtained from Sigma”, the “ability to reduce ^1O2 / generate H2O2 (in words)” value [2] is reported as “the same as irradiation of PBS alone; also recorded: do not reduce ^1O2”.

In the case of “β-galactosidase: enzyme from Sigma; most efficient non-immunoglobulin protein at H2O2 photo-production”, the “H2O2 generated by photo-production” value ([1]; near-UV, from its 39 Trp residues) is reported as 5.9 mol eq.

B1: RNase A: ribonuclease from Amersham Pharmacia (protein, UniProt P61823 27-150, looked up)
Ribonuclease pancreatic: KETAAAKFERQHMDSSTSAASSSNYCNQMMKSRNLTKDRCKPVNTFVHESLADVQAVCSQKNVACKNGQTNCYQSYSTMSITDCRETGSSKYPNCAYKTTQANKHIIVACEGNPYVPVHFDASV
For B1, the “ability to reduce ^1O2 / generate H2O2 (in words)” value [2] was “do not reduce ^1O2”.
